Results published in patent US10118922B2 (Janssen Pharmaceutica NV, priority 2013, dated 2018).

Legend:
[1] = target: T1, long form of human GPR120 (Homo sapiens, UniProt Q5NUL3); test: Human GPR120 DiscoveRx PathHunter beta-arrestin assay, Procedure β-arrestin A; type: cell-based; conditions: PathHunter CHO-K1 GPR120 β-Arrestin cells, 3000 cells per well; read-out: hGPR120 β-arrestin A EC50
T1 construct: host or cells: PathHunter CHO-K1 GPR120 β-Arrestin Cell Line
T1 sequence (Q5NUL3 1-377 isoform Q5NUL3-1): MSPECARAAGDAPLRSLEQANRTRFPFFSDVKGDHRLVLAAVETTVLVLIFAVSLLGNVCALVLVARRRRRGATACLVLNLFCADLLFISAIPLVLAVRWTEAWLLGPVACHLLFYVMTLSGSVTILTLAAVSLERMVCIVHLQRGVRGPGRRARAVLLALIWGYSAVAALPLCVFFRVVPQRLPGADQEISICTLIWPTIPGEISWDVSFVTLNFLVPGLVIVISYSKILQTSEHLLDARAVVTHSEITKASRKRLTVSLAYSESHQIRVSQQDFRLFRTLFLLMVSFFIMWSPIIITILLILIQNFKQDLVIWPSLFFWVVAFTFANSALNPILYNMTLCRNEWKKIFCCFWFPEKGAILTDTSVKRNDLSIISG
Excerpt: The binding of an agonist (medium/long chain fatty acids or small molecule agonists) to the G-protein-coupled receptor GPR120 activates phospholipase C, leading to release of intracellular Ca^+2 through the generation of inositol 1,4,5-trisphosphate (InsP3 or IP3). GPR120 activation can also trigger intracellular signaling via recruitment of Beta-Arrestin. In the present method, agonist-induced activation of the human GPR120 receptor is monitored through the use of PathHunter CHO-K1 GPR120 Beta-Arrestin Cell Line engineered by DiscoveRx, as detailed below. The cell lines are designed to co-express both the ProLink/Enzyme Donor (PK)-tagged GPCR and the Enzyme […] (EA)-tagged Beta-Arrestin fusion proteins. Upon GPR120 receptor stimulation/activation, the EA-tagged Beta-Arrestin portion is translocated to the tagged receptor, where the two enzyme fragments are brought within close proximity. Under these conditions, these fragments can interact and form an active Beta-gal enzyme complex through Enzyme Fragment Complementation (EFC). […] This in vitro assay therefore serves to assess compound agonist activity of the GPR120.
In Procedure β-arrestin A, the cell used were PathHunter CHO-K1 GPR120 β-Arrestin Cell Line, expressing the long form of human GPR120 (Genbank accession number NM_181745), with 3000 cells per well.
The selected CHO-K1 GPR120 β-Arrestin cells were cultured in Ham's F12 media supplemented with 10% fetal bovine serum (FBS), 1% Glutamine, 1×p/s, 800 μg/mL G418 and 300 μg/mL Hygromycin B (for selection). Cell stocks were maintained and grown in a sub-confluent state using standard cell culture procedures. The day before the experiment, the cells were harvested with non-enzymatic cell dissociation buffer and re-suspended in complete growth media at the desired concentration. […] The seeded plates were incubated overnight at 37° C.
On the day of the experiment, the Assay Buffer containing (a) HBSS with Ca^++ and Mg^++, (b) 20 mM HEPES, and (c) 0.1% BSA stabilizer (pH 7.4) was prepared. The growth medium was gently removed from the cell plates and 20 μL of Assay Buffer added to each well. The plate was then incubated at 37° C. for 60 min. […] Five μL of compound dilution was then added to each well and the plate incubated at 37° C. for 90 min. The detection reagents were prepared according to the manufacture's instruction. Twelve μL of the detection reagents were added to each well and the plate incubated at room temperature for 60 min.
The % activity relative to the positive control was calculated using the following equation:
The Fitting Equation was: Y=Bottom+(Top-Bottom)/(1+10^((Log EC50−X)*HillSlope)), where X is the log of the concentration and Y is the response.

Human GPR120 short form = target: T2, Human GPR120 short form (Homo sapiens, UniProt Q5NUL3); test: Human GPR120 calcium flux assay, Procedure Calcium A; type: cell-based; conditions: HEK-293 cells, FLIPR, 2500 cells/well; read-out: GPR120 Ca2+ Assay A EC50
T2 construct: expressed in transfected cells
T2 sequence (Q5NUL3 1-361): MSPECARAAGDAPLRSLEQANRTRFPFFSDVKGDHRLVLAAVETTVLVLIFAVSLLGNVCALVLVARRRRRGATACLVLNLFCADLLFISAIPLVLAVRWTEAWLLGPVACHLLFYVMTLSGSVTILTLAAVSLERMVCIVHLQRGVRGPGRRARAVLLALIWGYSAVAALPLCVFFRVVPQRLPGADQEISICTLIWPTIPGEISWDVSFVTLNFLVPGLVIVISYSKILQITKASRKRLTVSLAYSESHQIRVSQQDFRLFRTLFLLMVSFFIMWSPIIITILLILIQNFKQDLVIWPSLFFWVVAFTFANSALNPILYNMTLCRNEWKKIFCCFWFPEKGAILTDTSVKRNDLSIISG

Row | Structure (SMILES) | EC50 [1] | EC50 (Human GPR120 short form)
1 | Cc1sc(-c2ccccc2)c(COc2ccc(CCC(=O)O)c(C)c2C)c1C(F)(F)F [Cpd 33, 3-(2,3-Dimethyl-4-{[5-methyl-2-phenyl-4-(trifluoromethyl)thiophen-3-yl]methoxy}phenyl)propanoic acid] | 0.431 µM | 0.05 µM
2 | OCCCc1cc(F)c(OCc2c(Cl)nsc2-c2ccc(Cl)cc2)c(F)c1 [Cpd 78, 3-(4-{[3-Chloro-5-(4-chlorophenyl)isothiazol-4-yl]methoxy}-3,5-difluorophenyl)propan-1-ol] | 0.028 µM | 0.05 µM
3 | O=C(O)CCc1cc(F)c(OCc2sc(Cl)cc2-c2ccc(Cl)cc2)c(F)c1 [Cpd 2, 3-(4-{[5-Chloro-3-(4-chlorophenyl)thiophen-2-yl]methoxy}-3,5-difluorophenyl)propanoic acid] | 0.097 µM | 0.03 µM
